From ChEMBL document CHEMBL3045043, “Synthesis, chemical characterization of novel 1,3-dimethyl acridones as cytotoxic agents, and their DNA-binding studies” (Med Chem Res, 2010)

Tests used:
DNA = assay: Binding affinity to Bos taurus (calf) thymus DNA assessed as hypochromicity at 15 uM by spectrophotmetry analysis; format: nucleic-acid assay
MCF7 = assay: Cytotoxicity against Homo sapiens (human) MCF7 cells after 48 hr by trypan blue assay; format: functional, cell-based; settings: MCF7, 48 h
HL-60 = assay: Cytotoxicity against Homo sapiens (human) HL60 cells after 48 hr by trypan blue assay; format: functional, cell-based; settings: HL-60, 48 h

Activity (DNA) [%] | Structure (SMILES) | IC50 (MCF7) [µM] | IC50 (HL-60) [µM]
29 | Cc1cc(C)c2c(=O)c3ccccc3n(CCCCN3CCCC3)c2c1 | 4.56 | 14.1
– | Cc1cc(C)c2c(=O)c3ccccc3n(CCCCl)c2c1 | 54.4 | 16.4
– | Cc1cc(C)c2c(=O)c3ccccc3n(CCCN3CCCCC3)c2c1 | 34.6 | 14.1
13 | Cc1cc(C)c2c(=O)c3ccccc3n(CCCN3CCOCC3)c2c1 | 43.9 | 13.7
51 | Cc1cc(C)c2c(=O)c3ccccc3n(CCCCN3CCN(C)CC3)c2c1 | 8.96 | 1.74
48 | Cc1cc(C)c2c(=O)c3ccccc3n(CCCN3CCN(C)CC3)c2c1 | 28.5 | 15.4
40 | CCN(CC)CCCn1c2ccccc2c(=O)c2c(C)cc(C)cc21 | 11.2 | 1.65
35 | Cc1cc(C)c2c(=O)c3ccccc3n(CCCCN3CCOCC3)c2c1 | 8.45 | 0.51
52 | CCN(CC)CCCCn1c2ccccc2c(=O)c2c(C)cc(C)cc21 | 7.98 | 0.45
53 | Cc1cc(C)c2c(=O)c3ccccc3n(CCCCN3CCN(CCO)CC3)c2c1 | 4 | 11
52 | Cc1cc(C)c2c(=O)c3ccccc3n(CCCN3CCN(CCO)CC3)c2c1 | 7.87 | 10.9
– | Cc1cc(C)c2c(=O)c3ccccc3n(CCCCCl)c2c1 | 34.4 | 14.2
– | O=P1(N(CCCl)CCCl)NCCCO1 (stereo unspecified) [CYCLOPHOSPHAMIDE ANHYDROUS] | 0.16 | –
– | Cc1cc(C)c2c(=O)c3ccccc3[nH]c2c1 | 78.9 | 20
50 | Cc1cc(C)c2c(=O)c3ccccc3n(CCCCN3CCCCC3)c2c1 | 6.67 | 1.41
– | Cc1cc(C)c2c(=O)c3ccccc3n(CCCN3CCCC3)c2c1 | 19.7 | 14.6
